Source: publication PMC5811830 (Journal of Clinical Pharmacology, 2017)
Read-outs that look alike come from different tables or passages of the source.

Key:
[1] = type: in vivo, human; conditions: for Cmax geometric least-squares mean ratio (90%CI) (test/reference): with vs without ketoconazole
[2] = type: in vivo, human; conditions: for AUC0-264 geometric least-squares mean ratio (90%CI) (test/reference) / Cmax geometric least-squares mean ratio (90%CI) (test/reference): with vs without clarithromycin
[3] = type: in vivo, human; conditions: for Reduction of Cmax in the presence of rifampin: ixazomib 4 mg oral, rifampin 600 mg once daily; for AUC0-last geometric least-squares mean ratio (90%CI) (test/reference) / Cmax geometric least-squares mean ratio (90%CI) (test/reference): with vs without rifampin
[4] = Treatment-emergent adverse events and on-study deaths in the DDI study arms; type: in vivo, human
Period effect analysis = type: in vivo, human; conditions: pooled ketoconazole DDI, food effect and relative bioavailability arms
CYP3A4 = conditions: higher than clinical concentrations; cited from earlier work
CYP1A2 = conditions: higher than clinical concentrations; cited from earlier work
CYP2B6 = conditions: higher than clinical concentrations; cited from earlier work
CYP2C8 = conditions: higher than clinical concentrations; cited from earlier work
CYP2D6 = conditions: higher than clinical concentrations; cited from earlier work
CYP2C19 = conditions: higher than clinical concentrations; cited from earlier work
CYP2C9 = conditions: higher than clinical concentrations; cited from earlier work
[5] = humans; cited from earlier work
[6] = clinically relevant exposures; cited from earlier work
P‐glycoprotein (P‐gp) = conditions: in vitro data; cited from earlier work
intestinal P‐gp = conditions: multiple doses of rifampin, duodenal biopsies, Western blotting; cited from earlier work
[7] = cited from earlier work
[8] = test condition: ixazomib 4 mg oral day 8 with rifampin 600 mg once daily, N = 16
[9] = Clarithromycin arm (N = 21), cycle 1 only
[10] = Rifampin arm (N = 38), test and reference groups

CC(C)C[C@H](NC(=O)CNC(=O)c1cc(Cl)ccc1Cl)B(O)O [ixazomib]
Geometric mean AUC0-264, h·ng/mL (%CV), not corrected for the period effect ([1]; test condition: ixazomib 2.5 mg oral, period 2 with ketoconazole): 1150 (46) h·ng/mL | Cmax geometric least-squares mean ratio (90%CI) (test/reference) [1]: 1.01 | Cmax geometric least-squares mean ratio (90%CI) (test/reference) ([1]; listed as Ixazomib): 1.01 (0.78‐1.30) | Increase in AUC with the strong CYP3A inhibitors ketoconazole and clarithromycin ([2]; observed, ketoconazole and clarithromycin DDI studies): ≤ 11% | AUC0-264 geometric least-squares mean ratio (90%CI) (test/reference) [2]: 1.11 | Cmax geometric least-squares mean ratio (90%CI) (test/reference) [2]: 0.96 | AUC0-264 geometric least-squares mean ratio (90%CI) (test/reference) ([2]; listed as Ixazomib): 1.11 (0.86‐1.43) | Cmax geometric least-squares mean ratio (90%CI) (test/reference) ([2]; listed as Ixazomib): 0.96 (0.67‐1.36) | Reduction of Cmax in the presence of rifampin [3]: 54% | Reduction of Cmax in the presence of rifampin ([3]; listed as Ixazomib): approximately 54% | Geometric mean AUC0-last, h·ng/mL (%CV) [3, 8]: 232 (50) h·ng/mL | Geometric mean Cmax, ng/mL (%CV) [3, 8]: 25.7 (50) ng/mL | Median Tmax, h (range) [3, 8]: 1.45 (0.5‐4.12) h | AUC0-last geometric least-squares mean ratio (90%CI) (test/reference) [3]: 0.26 | Cmax geometric least-squares mean ratio (90%CI) (test/reference) [3]: 0.46 | AUC0-last geometric least-squares mean ratio (90%CI) (test/reference) ([3]; listed as Ixazomib): 0.26 (0.18‐0.37) | Cmax geometric least-squares mean ratio (90%CI) (test/reference) ([3]; listed as Ixazomib): 0.46 (0.29‐0.73) | Any AE, n (%) [4, 9]: 16 (76) n (%) | Any drug-related AE, n (%) [4, 9]: 4 (19) n (%) | Any drug-related grade ≥3 AE, n (%) [4, 9]: 0 n (%) | Any drug-related serious AE, n (%) [4, 9]: 0 n (%) | Any grade ≥3 AE, n (%) [4, 9]: 2 (10) n (%) | Any serious AE, n (%) [4, 9]: 2 (10) n (%) | On-study deaths, n (%) [4, 9]: 0 n (%) | AE leading to discontinuation, n (%) ([4]; Ketoconazole arm (N = 29)): 8 (28) n (%) | Any AE, n (%) ([4]; Ketoconazole arm (N = 29)): 29 (100) n (%) | Any drug-related AE, n (%) ([4]; Ketoconazole arm (N = 29)): 27 (93) n (%) | Any drug-related grade ≥3 AE, n (%) ([4]; Ketoconazole arm (N = 29)): 10 (34) n (%) | Any drug-related serious AE, n (%) ([4]; Ketoconazole arm (N = 29)): 3 (10) n (%) | Any grade ≥3 AE, n (%) ([4]; Ketoconazole arm (N = 29)): 18 (62) n (%) | Any serious AE, n (%) ([4]; Ketoconazole arm (N = 29)): 12 (41) n (%) | On-study deaths, n (%) ([4]; Ketoconazole arm (N = 29)): 2 (7) n (%) | AE leading to discontinuation, n (%) [4, 10]: 4 (11) n (%) | Any AE, n (%) [4, 10]: 37 (97) n (%) | Any drug-related AE, n (%) [4, 10]: 32 (84) n (%) | Any drug-related grade ≥3 AE, n (%) [4, 10]: 7 (18) n (%) | Any drug-related serious AE, n (%) [4, 10]: 2 (5) n (%) | Any grade ≥3 AE, n (%) [4, 10]: 15 (39) n (%) | Any serious AE, n (%) [4, 10]: 7 (18) n (%) | On-study deaths, n (%) [4, 10]: 1 (3) n (%) | AE leading to discontinuation, n (%) ([4]; Total (N = 88)): 13 (15) n (%) | Any AE, n (%) ([4]; Total (N = 88)): 82 (93) n (%) | Any drug-related AE, n (%) ([4]; Total (N = 88)): 63 (72) n (%) | Any drug-related grade ≥3 AE, n (%) ([4]; Total (N = 88)): 17 (19) n (%) | Any drug-related serious AE, n (%) ([4]; Total (N = 88)): 5 (6) n (%) | Any grade ≥3 AE, n (%) ([4]; Total (N = 88)): 35 (40) n (%) | Any serious AE, n (%) ([4]; Total (N = 88)): 21 (24) n (%) | On-study deaths, n (%) ([4]; Total (N = 88)): 3 (3) n (%) | Patients with a study drug-related AE ([4]; across the 3 DDI study arms (N = 88)): 72% | Patients with study drug-related grade 3 AEs ([4]; across the 3 study arms, 17 patients): 19% | Patients with grade ≥3 AEs ([4]; across the 3 study arms, 35 patients): 40% | Study drug-related grade 3 AE: thrombocytopenia ([4]; across the 3 study arms, n = 2): 2% | Study drug-related grade 3 AE: vomiting ([4]; across the 3 study arms, n = 2): 2% | Study drug-related grade 3 AE: diarrhea ([4]; across the 3 study arms, n = 3): 3% | Study drug-related grade 3 AE: nausea ([4]; across the 3 study arms, n = 3): 3% | Study drug-related grade 3 AE: fatigue ([4]; across the 3 study arms, n = 9): 10% | Study drug-related AE: weight loss ([4]; across the 3 study arms, n = 10): 11% | Study drug-related AE: dehydration ([4]; across the 3 study arms, n = 12): 14% | Study drug-related AE: asthenia ([4]; across the 3 study arms, n = 13): 15% | Study drug-related AE: decreased appetite ([4]; across the 3 study arms, n = 15): 17% | Magnitude of the period effect (period 2 AUC vs period 1 AUC), pooled analysis (Period effect analysis): 1.91 fold | Estimated relative contribution of 3A4 to metabolism (CYP3A4): 42% | Estimated relative contribution of 1A2 to metabolism (CYP1A2): 26% | Estimated relative contribution of 2B6 to metabolism (CYP2B6): 16% | Estimated relative contribution of 2C8 to metabolism (CYP2C8): 6% | Estimated relative contribution of 2D6 to metabolism (CYP2D6): 5% | Estimated relative contribution of 2C19 to metabolism (CYP2C19): 5% | Estimated relative contribution of 2C9 to metabolism (CYP2C9): < 1% | Orally administered radiolabeled ixazomib recovered in urine [5]: 62% | Urinary excretion representing the parent drug [5]: < 3.5% | Effect on the QTc interval [6]: does not prolong the QTc interval | P-gp substrate status (P‐glycoprotein (P‐gp)): low‐affinity substrate

CO[C@H]1/C=C/O[C@@]2(C)Oc3c(C)c(O)c4c(O)c(c(/C=N/N5CCN(C)CC5)c(O)c4c3C2=O)NC(=O)/C(C)=C\C=C\[C@H](C)[C@H](O)[C@@H](C)[C@@H](O)[C@@H](C)[C@H](OC(C)=O)[C@@H]1C [rifampin]
Assumed increase in intestinal P-gp activity (intestinal P‐gp): 4 fold

COc1cc2nccc(Oc3ccc(NC(=O)Nc4cc(C)on4)c(Cl)c3)c2cc1OC [tivozanib]
Effect of steady-state ketoconazole on tivozanib AUC ([7]; ketoconazole 400 mg/day): did not alter | Decrease in tivozanib AUC with rifampin ([7]; rifampin 600 mg/day): 53%
